Patent US20260007712A1, “COMPOSITION FOR PREVENTING, AMELIORATING OR TREATING PERIODONTAL DISEASES” (NUTRACORE CO., LTD., priority 2022, published 2026)

How the values were obtained:
Assay type in all cases: in vivo
[1] = test system: periodontal bone loss (alveolar bone loss); experiment: Periodontal bone loss rate, tooth neck ligation rat periodontal disease (EPD) model; details: EPD rats; extracts 200 mg/kg, IND 5 mg/kg, oral once daily for 10 days from 24 h after ligation; FIG. 3
Excerpt: (§1) In this study, as part of the development of functional food ingredients derived from natural products to improve periodontitis and periodontal bone damage, three types of natural product extracts, dried rehmanniae radix, wasabi leaf, and Sancho extracts, that are well known for various physiological activities, including anti-inflammatory and antioxidant effects were compared and explored using a tooth neck ligation rat periodontal disease (experimental periodontitis; EPD) model to investigate the efficacy against periodontitis and periodontal bone loss.
(§2) Specifically, a total of 121 SPF/VAF Outbred Crl:CD [SD] male rats (OrientBio, Seungnam, Korea) were obtained, and after acclimatization for 7 days, experimental animals with a constant body weight were selected, and 10 animals per group were divided and tested in 7 groups below (normal medium control group: average 248.90±8.23 g, 236.00˜261.00 g; EPD-induced group: average 248.14±9.85 g, 219.00˜272.00 g). […]
(§3) Daily body weight was measured from 1 day before ligation, periodontal bone loss rate was measured on the final sacrifice day, some gingival tissue was extracted, changes in IL-1β, TNF-α, and MDA content were observed. The number of infiltrating inflammatory cells in the gingival tissue, periodontal bone volume (alveolar bone volume), and collagen content in the gums were measured.

[2] = test system: periodontal bone mass (alveolar bone volume); experiment: Periodontal bone mass (alveolar bone volume), EPD rat model; details: EPD rats; extracts 200 mg/kg, IND 5 mg/kg, oral once daily for 10 days; FIG. 4
Excerpt: as §1, §2, §3

[3] = test system: infiltrating inflammatory cells in gingival tissue; experiment: Number of infiltrating inflammatory cells in gingival tissue, EPD rat model; details: EPD rats; extracts 200 mg/kg, IND 5 mg/kg, oral once daily for 10 days; FIG. 5
Excerpt: as §1, §2, §3

[4] = test system: collagen fibers in gingival tissue; experiment: Collagen fiber content in gingival tissue, EPD rat model; details: EPD rats; extracts 200 mg/kg, IND 5 mg/kg, oral once daily for 10 days; FIG. 6
Excerpt: as §1, §2, §3

IL-1β = IL-1β content in gingival tissue, EPD rat model; details: EPD rats; extracts 200 mg/kg, IND 5 mg/kg, oral once daily for 10 days; top of FIG. 7
Excerpt: as §1, §2, §3

TNF-α = TNF-α content in gingival tissue, EPD rat model; details: EPD rats; extracts 200 mg/kg, IND 5 mg/kg, oral once daily for 10 days; bottom of FIG. 7
Excerpt: as §1, §2, §3

MDA = MDA content in gingival tissue, EPD rat model; details: EPD rats; extracts 200 mg/kg, IND 5 mg/kg, oral once daily for 10 days; FIG. 8
Excerpt: as §1, §2, §3

## COc1ccc2c(c1)c(CC(=O)O)c(C)n2C(=O)c1ccc(Cl)cc1 [IND, Indomethacin]
[1]
  change in periodontal bone loss rate compared to the EPD control group: −26.49%
[2]
  change in periodontal bone mass compared to the EPD control group: 188.14%
[3]
  change in number of infiltrating inflammatory cells in gingival tissue compared to the EPD control group: −57.61%
[4]
  change in proportion of collagen fibers in gingival tissue compared to the EPD control group: 148.65%
IL-1β
  change in IL-1β content in gingival tissue compared to the EPD control group: −54.75%
TNF-α
  change in TNF-α content in gingival tissue compared to the EPD control group: −50.46%
MDA
  change in MDA content in gingival tissue compared to the EPD control group: −42.44%
